{
  "source": "patent US20050244907A1",
  "about": "“Methods, compositions, and kits for analysis of enzyme activity in cells” (Applera Corporation, priority 2003, published 2005)",
  "key": {"CHO cells": {"tested_on": "CHO cells", "assay": "Cell staining with liposomes containing DDAO-gal, CHO cells (FMAT fluorescence)", "type": "cell-based, Chinese Hamster", "conditions": "no endogenous β-galactosidase, 3 hr at 37° C., excitation 633 nm", "method": "The experiments shown in FIGS. 7-9, were conducted under similar conditions to those of FIGS. 1-3, respectively, with the exception that Chinese Hamster Ovary (CHO) cells were used."}, "E. coli β-galactosidase": {"target": "E. coli β-galactosidase (Escherichia coli, UniProt P00722)", "sequence (P00722 whole entry)": "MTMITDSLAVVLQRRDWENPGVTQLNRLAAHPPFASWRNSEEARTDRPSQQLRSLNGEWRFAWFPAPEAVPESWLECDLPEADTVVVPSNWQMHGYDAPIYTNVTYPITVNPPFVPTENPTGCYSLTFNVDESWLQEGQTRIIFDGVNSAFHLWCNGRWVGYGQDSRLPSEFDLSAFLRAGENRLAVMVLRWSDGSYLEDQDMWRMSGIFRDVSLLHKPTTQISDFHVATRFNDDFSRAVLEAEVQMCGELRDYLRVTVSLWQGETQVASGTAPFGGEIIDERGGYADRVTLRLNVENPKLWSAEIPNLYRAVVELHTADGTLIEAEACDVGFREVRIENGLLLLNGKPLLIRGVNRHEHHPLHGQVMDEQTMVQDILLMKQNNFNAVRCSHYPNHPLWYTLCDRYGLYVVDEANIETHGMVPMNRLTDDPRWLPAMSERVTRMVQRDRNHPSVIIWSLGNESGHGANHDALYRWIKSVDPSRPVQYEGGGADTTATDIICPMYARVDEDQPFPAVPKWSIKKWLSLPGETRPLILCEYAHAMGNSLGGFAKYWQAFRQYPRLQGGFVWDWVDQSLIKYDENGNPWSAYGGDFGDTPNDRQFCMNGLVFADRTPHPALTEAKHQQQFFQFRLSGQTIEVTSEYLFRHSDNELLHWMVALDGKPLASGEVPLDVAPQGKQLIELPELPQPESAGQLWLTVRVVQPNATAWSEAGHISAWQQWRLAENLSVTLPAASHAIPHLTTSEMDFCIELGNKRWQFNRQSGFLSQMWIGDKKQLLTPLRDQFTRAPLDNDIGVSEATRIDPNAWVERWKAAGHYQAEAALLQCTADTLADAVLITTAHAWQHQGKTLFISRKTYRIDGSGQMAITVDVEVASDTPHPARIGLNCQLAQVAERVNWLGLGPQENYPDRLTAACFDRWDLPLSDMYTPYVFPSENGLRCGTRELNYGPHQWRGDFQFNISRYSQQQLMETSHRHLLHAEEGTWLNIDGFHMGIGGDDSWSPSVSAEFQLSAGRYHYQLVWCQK", "conditions": "psi 2 BAGα cells constitutively expressing β-galactosidase; 3 hr at 37° C.; excitation 633 nm; emission 685-710 nm (panel B)", "experimental": "Psi 2 BAGα cells (ATCC, catalog no. CRL-9560) in Dulbecco's modified Eagle's medium (ATCC, catalog no. 30-2002) containing 5% Fetal Bovine Serum (FBS, HyClone, catalog no. SH30071.03) and 1% penicillin-streptomycin solution (pen/strep, ATCC, catalog no. 30-2300) were seeded (200 μl/well, 10,000 cell/well) in black 96 well microtiter plates (ABI, catalog no. 4308776). […] After overnight incubation at 37° C. under 5% CO2 the supernatants were removed carefully so as not to detach the adherent cells from the wells. Solutions of liposome encapsulated DDAO-gal, liposome encapsulated DDAO and nonencapsulated DDAO-gal were prepared in the appropriate cell medium and then added to the cells (200 μl/well). The nonencapsulated DDAO-gal solution was used as a negative control (no liposome, passive uptake) and the liposome encapsulated DDAO solution was used as a positive control (DDAO is the product of DDAO-gal hydrolysis). After incubation for 3 hr at 37° C. under 5% CO2 the staining solutions were removed carefully and the cells were washed twice with Dulbecco's PBS (200 μl, ATCC, catalog no. 30-2200). PBS (200 μl) was added to the wells and the plate was read using an 8100 FMAT instrument (Applied Biosystems, an Applera Corporation business).\nDDAO-gal without liposomes were used as a negative control (passive load) and liposomes containing DDAO were used as a positive control. […]"}},
  "data": [
    {"smiles": "CC1(C)C2=C(Cl)C(=O)C(Cl)=CC2=Nc2ccc(O[C@@H]3O[C@H](CO)[C@H](O)[C@H](O)[C@H]3O)cc21", "note": "[DDAO-gal, 9H-(1,3-dichloro-9,9-dimethylacridin-2-one-7-yl) β-D-galactopyranoside]", "values": [
      {"measurement": "fluorescent signal", "setting": "CHO cells", "result": "signal observed"},
      {"measurement": "fluorescent signal", "setting": "E. coli β-galactosidase", "result": "much lower signal"}
    ]}
  ]
}
